This note sets out measurements from patent US20250051323A1 (RICHTER GEDEON NYRT., priority 2021, published 2025).

SMILES strings stand for the structures. Structures can show the parent of a compound that is named as a salt. Where two headings read alike, the source gives them in different places.

For assay [1], the target named is T1, human recombinant GABAA α5β3γ2 receptor (Homo sapiens (Human), UniProt P18507+P31644). The assay is described as follows: Binding assay, [3H]Ro151788 displacement on HEK cell membranes. The following applies: [3H]Ro151788 0.5 nM, 60 minutes at 4° C., Cheng-Prusoff; read-out: hGABAA α5 Ki. As for the experimental part:
The GABAA α5β3γ2 protein used for the receptor binding assay was derived from membranes produced from HEK cells (Millipore CYL3073) expressing the human recombinant GABAA α5β3γ2 receptor. Cells were stored and cultured in-house according to the instructions provided by the vendor (Millipore). Cell pellet was homogenized in 10 times modified Krebs Henseleit buffer (membrane preparation buffer): 20 mM Tris, 120 mM NaCl, 100 mM KCl, 25 mM CaCl2 and 25 mM MgCl2 pH=7.4 at 4° C. using Ultra Turrax (Janke&Kunkel) maximal speed for 15 seconds. The homogenate was centrifuged at 40,000 g for 30 minutes at 4° C. Supernatant was discarded and the resulting pellet was washed in membrane preparation buffer. Pellet was resuspended in membrane preparation buffer and aliquots of 1.4 mL ampules were stored at −70° C. until use.
Receptor binding assays were performed in 96-well format in deep-well plates. For each 96-well plate one ampule of membrane homogenate was thawed and diluted in binding buffer (50 mM Tris pH=7.4, 100 mM KCl) and 200 μL was dispensed into each well. Radioligand [^3H]Ro151788 (Perkin Elmer: NET757250UC) was prepared in binding buffer and added to each well in 50 μL volume to give final concentration of 0.5 nM. Test compounds in suitable concentration(s) were added in additional 50 μL. The final assay volume was 300 μL. Incubation was carried out for 60 minutes at 4° C. For non-specific binding 10 μM unlabeled diazepam was used. […] The plate was dried at 40° C. for an hour and 40 μL Microscint (Perkin Elmer) scintillation cocktail was added to each well. The plate was read in Microbeta (Perkin Elmer).
The specific radioligand binding (SB) was defined as the difference between total binding (Tot) and the non-specific binding (NSB). Results are expressed as a percent inhibition of specific binding obtained in the presence of compound of interest.
For IC50 and Ki determination a minimum of six drug concentrations in triplicate were used. […] Ki values (i.e., inhibition constants) were calculated using the Cheng-Prusoff equation Ki=IC5O/[1+(L/KD)], where [L] is the radioligand concentration and KD the affinity of the labelled ligand for receptor. KD was determined from the Saturation analyses.

Assay [2] has as its target T1, human recombinant GABAA α5β3γ2 receptor. The experiment in a line: Functional assay, QPatch automated whole-cell patch clamp, modulation of GABA-evoked current. Type of assay: cell-based. The following applies: read-out: hGABAA α5 efficacy (percentage modulation of GABA-evoked peak current). How it is done: Human HEK293 cell lines expressing GABAAα5β3γ2 receptors were used in functional assays using the QPatch automated patch clamp system.
HEK293 cell lines stably expressing human recombinant GABAA α5β3γ2 receptor subunits (Millipore, CYL3053) were cultured in DMEM supplemented with 10% FBS (Gibco), passed two times per week and plated on Petri dishes previously coated with poly-d-lysine.
Automated whole-cell patch clamp recordings were made from cells 2-4 days after plating.
Inward currents were evoked at a holding potential of −80 mV by 3-s-long applications of the control agonist GABA at 1 μM at 2-4-min intervals first in concentration-matched DMSO (0.1 or 0.3%) control solution for five times, then in the presence of the test compound for four times, finally in control solution again for three times (wash-out). At the end of the experiment 100 μM GABA was applied to saturate the GABA-response and to assess the efficacy of the control GABA application. Current signals were low-pass filtered at 100 Hz and recorded at a sampling rate of 1 kHz.
The percentage modulation was calculated from the comparison of GABA-evoked peak current amplitudes in the presence and absence of the test compound.

The mark [3] stands for this setting: test compound 1 μM, GABA 1 μM, holding potential −80 mV.

T1 sequence (P31644 32-462): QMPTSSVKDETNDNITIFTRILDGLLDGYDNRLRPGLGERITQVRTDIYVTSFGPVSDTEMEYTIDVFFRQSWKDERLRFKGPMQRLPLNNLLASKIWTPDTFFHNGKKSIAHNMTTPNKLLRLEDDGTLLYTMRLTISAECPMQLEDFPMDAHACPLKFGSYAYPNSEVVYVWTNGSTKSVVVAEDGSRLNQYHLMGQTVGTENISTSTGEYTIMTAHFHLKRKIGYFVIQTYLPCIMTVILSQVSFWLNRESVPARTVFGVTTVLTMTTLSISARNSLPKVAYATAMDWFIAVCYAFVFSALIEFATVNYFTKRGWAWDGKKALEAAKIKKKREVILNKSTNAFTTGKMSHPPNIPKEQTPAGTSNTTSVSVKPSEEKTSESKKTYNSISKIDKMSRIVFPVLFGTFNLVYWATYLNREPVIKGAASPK
T1 sequence (P28472 26-473 partner): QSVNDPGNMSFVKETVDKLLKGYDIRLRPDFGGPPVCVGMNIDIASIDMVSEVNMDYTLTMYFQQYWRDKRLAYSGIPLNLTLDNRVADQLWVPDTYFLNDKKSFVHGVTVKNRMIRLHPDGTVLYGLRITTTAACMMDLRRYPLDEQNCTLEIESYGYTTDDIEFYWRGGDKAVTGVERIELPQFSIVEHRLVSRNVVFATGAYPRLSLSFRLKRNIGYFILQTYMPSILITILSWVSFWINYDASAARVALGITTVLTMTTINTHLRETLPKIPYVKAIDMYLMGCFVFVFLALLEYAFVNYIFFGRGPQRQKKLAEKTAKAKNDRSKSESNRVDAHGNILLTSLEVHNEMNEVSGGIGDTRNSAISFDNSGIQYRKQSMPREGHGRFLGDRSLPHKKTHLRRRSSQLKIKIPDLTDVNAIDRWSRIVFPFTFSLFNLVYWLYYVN
T1 sequence (P18507 40-475): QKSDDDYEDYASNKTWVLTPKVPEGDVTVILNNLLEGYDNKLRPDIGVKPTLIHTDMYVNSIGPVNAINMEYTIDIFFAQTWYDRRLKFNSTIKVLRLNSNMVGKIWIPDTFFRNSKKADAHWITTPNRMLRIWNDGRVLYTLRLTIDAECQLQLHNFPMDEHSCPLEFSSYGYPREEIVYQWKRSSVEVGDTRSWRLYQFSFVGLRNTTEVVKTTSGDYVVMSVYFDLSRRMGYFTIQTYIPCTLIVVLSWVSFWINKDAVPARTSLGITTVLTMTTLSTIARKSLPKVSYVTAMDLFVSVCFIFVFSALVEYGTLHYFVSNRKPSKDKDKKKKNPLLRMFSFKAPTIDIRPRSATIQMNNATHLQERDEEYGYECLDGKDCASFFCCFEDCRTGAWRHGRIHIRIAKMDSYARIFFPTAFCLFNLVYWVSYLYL

As to `Cc1ccc(-c2noc(C)c2COc2cc3c(nn2)CN(C)CC3)cn1` [Example 16, 2-methyl-5-{5-methyl-4-[({7-methyl-5H,6H,7H,8H-pyrido[3,4-c]pyridazin-3-yl}oxy)methyl]-1,2-oxazol-3-yl}pyridine], the Ki in assay [1] turned out to be 5.6 nM. Besides, the activation at 1 µM in assay [2] (setting [3]) was found to be 146%.

`Cc1ccc(-c2noc(C)c2COc2cc3c(cn2)CNCC3)cn1` [Example 1, 6-{[5-methyl-3-(6-methylpyridin-3-yl)-1,2-oxazol-4-yl]methoxy}-1,2,3,4-tetrahydro-2,7-naphthyridine trifluoroacetic acid salt]: the Ki in assay [1] was found to be 3.9 nM. The activation at 1 µM in assay [2] came out at 155%.

Regarding `Cc1ccc(-n2nnc(C)c2COc2cc3c(cn2)CN(C)CC3)cn1` [Example 21, 2-methyl-6-{[4-methyl-1-(6-methylpyridin-3-yl)-1H-1,2,3-triazol-5-yl]methoxy}-1,2,3,4-tetrahydro-2,7-naphthyridine], the Ki in assay [1] stood at 23 nM. For the same molecule, the activation at 1 µM in assay [2] (setting [3]) was found to be 134%.

For the molecule `Cc1onc(-c2ccc(C(F)(F)F)nc2)c1COc1cc2c(nn1)CN(CC1CCS(=O)(=O)C1)CC2` (stereo not shown) [Example 19, 3-{[3-({5-methyl-3-[6-(trifluoromethyl)pyridin-3-yl}-1,2-oxazol-4-yl]methoxy)-5H,6H,7H,8H-pyrido[3,4-c]pyridazin-7-yl]methyl}-1lambda6-thiolane-1,1-dione tartarate salt], in assay [1], the Ki amounted to 35.5 nM. In assay [2], the activation at 1 µM is 129%.

For the molecule `Cc1ccc(-n2nnc(C)c2COc2cc3c(nn2)CN(CC2CCC2)CC3)cn1` [Example 45, 5-[5-({[7-(cyclobutylmethyl)-5H,6H,7H,8H-pyrido[3,4-c]pyridazin-3-yl]oxy}methyl)-4-methyl-1H-1,2,3-triazol-1-yl]-2-methylpyridine tartarate salt], the Ki in assay [1] stood at 99.5 nM. In assay [2], the activation at 1 µM was 97%.

Consider `Cc1onc(-c2ccc(C(F)(F)F)nc2)c1COc1cc2c(cn1)CN(C1CCOC1)CC2` (stereo not shown) [Example 8, 6-({5-methyl-3-[6-(trifluoromethyl)pyridin-3-yl]-1,2-oxazol-4-yl}methoxy)-2-(oxolan-3-yl)-1,2,3,4-tetrahydro-2,7-naphthyridine], for which the Ki in assay [1] came to 11.2 nM. Further, the activation at 1 µM in assay [2] (setting [3]) was 133%.

Turning to `Cc1ccc(-n2nnc(C)c2COc2cc3c(cn2)CN(C2CCOCC2)CC3)cn1` [Example 33, 6-{[4-methyl-1-(6-methylpyridin-3-yl)-1H-1,2,3-triazol-5-yl]methoxy}-2-(oxan-4-yl)-1,2,3,4-tetrahydro-2,7-naphthyridine], the Ki in assay [1] turned out to be 29.5 nM. Also, the activation at 1 µM in assay [2] (setting [3]) was determined as 71%.

Consider `Cc1ccc(-n2nnc(C)c2COc2cc3c(nn2)CN(C2CCC2)CC3)cn1` [Example 46, 5-{5-[({7-cyclobutyl-5H,6H,7H,8H-pyrido[3,4-c]pyridazin-3-yl}oxy)methyl]-4-methyl-1H-1,2,3-triazol-1-yl}-2-methylpyridine tartarate salt], for which the inhibition constant (Ki) in assay [1] is 61.5 nM. Also, in assay [2], the activation at 1 µM amounted to 76%.

Regarding `Cc1ccc(-c2noc(C)c2COc2cc3c(cn2)CN(C2CCOC2)CC3)cn1` (stereo not shown) [Example 9, 6-{[5-methyl-3-(6-methylpyridin-3-yl)-1,2-oxazol-4-yl]methoxy}-2-(oxolan-3-yl)-1,2,3,4-tetrahydro-2,7-naphthyridine], in assay [1], the inhibition constant Ki is 4.9 nM. Besides, the activation at 1 µM in assay [2] (setting [3]) is 106%.

As for `Cc1ccc(-n2nnc(C)c2COc2cc3c(nn2)CNCC3)cn1` [Example 44, 2-methyl-5-[4-methyl-5-({5H,6H,7H,8H-pyrido[3,4-c]pyridazin-3-yloxy}methyl)-1H-1,2,3-triazol-1-yl]pyridine], in assay [1], the inhibition constant (Ki) was 40.4 nM. Besides, the activation at 1 µM in assay [2] (setting [3]) turned out to be 96%.

As for `Cc1ccc(-n2nnc(C)c2COc2cc3c(cn2)CN(C(C)C)CC3)cn1` [Example 22, 6-{[4-methyl-1-(6-methylpyridin-3-yl)-1H-1,2,3-triazol-5-yl]methoxyl}-2-(propan-2-yl)-1,2,3,4-tetrahydro-2,7-naphthyridine], the Ki in assay [1] was found to be 22.7 nM. Besides, the activation at 1 µM in assay [2] (setting [3]) was 68%.

With `Cc1ccc(-c2noc(C)c2COc2cc3c(cn2)CN(C2CCOCC2)CC3)cn1` [Example 11, 6-{[5-methyl-3-(6-methylpyridin-3-yl)-1,2-oxazol-4-yl]methoxy}-2-(oxan-4-yl)-1,2,3,4-tetrahydro-2,7-naphthyridine], the Ki in assay [1] amounted to 7.4 nM. Moreover, the activation at 1 µM in assay [2] (setting [3]) came to 114%.

Turning to `Cc1ccc(-c2noc(C)c2COc2cc3c(nn2)CNCC3)cn1` [Example 14, 2-methyl-5-[5-methyl-4-({5H,6H,7H,8H-pyrido[3,4-c]pyridazin-3-yloxy}methyl)-1,2-oxazol-3-yl]pyridine], the inhibitory constant (Ki) in assay [1] is 3.2 nM. Also, the activation at 1 µM in assay [2] (setting [3]) stood at 126%.

As to `Cc1onc(-c2ccc(C(F)(F)F)nc2)c1COc1cc2c(cn1)CNCC2` [Example 2, 6-({5-methyl-3-[6-(trifluoromethyl)pyridin-3-yl]-1,2-oxazol-4-yl}methoxy)-1,2,3,4-tetrahydro-2,7-naphthyridine trifluoroacetic acid salt], in assay [1], the Ki was 37 nM. Also, the activation at 1 µM in assay [2] turned out to be 100%.

`Cc1ccc(-n2nnc(C)c2COc2cc3c(cn2)CN(C2CCOC2)CC3)cn1` (racemic) [Example 29, 6-{[4-methyl-1-(6-methylpyridin-3-yl)-1H-1,2,3-triazol-5-yl]methoxy}-2-(oxolan-3-yl)-1,2,3,4-tetrahydro-2,7-naphthyridine]: the inhibitory constant (Ki) in assay [1] stood at 29.7 nM. Moreover, the activation at 1 µM in assay [2] (setting [3]) is 102%.

`Cc1onc(-c2ccc(C(F)(F)F)nc2)c1COc1cc2c(cn1)CN(C1CCOCC1)CC2` [Example 7, 6-({5-methyl-3-[6-(trifluoromethyl)pyridin-3-yl]-1,2-oxazol-4-yl}methoxy)-2-(oxan-4-yl)-1,2,3,4-tetrahydro-2,7-naphthyridine]: the Ki in assay [1] was found to be 29.3 nM. Besides, the activation at 1 µM in assay [2] (setting [3]) stood at 125%.

Consider `Cc1nnn(-c2ccc(C(F)(F)F)nc2)c1COc1cc2c(cn1)CN(C1CCOC1)CC2` (stereo not shown) [Example 32, 6-({4-methyl-1-[6-(trifluoromethyl)pyridin-3-yl]-1H-1,2,3-triazol-5-yl}methoxy)-2-(oxolan-3-yl)-1,2,3,4-tetrahydro-2,7-naphthyridine], for which, in assay [1], the Ki is 44.5 nM. Besides, the activation at 1 µM in assay [2] (setting [3]) was determined as 155%.

On to `Cc1ccc(-n2nnc(C)c2COc2cc3c(cn2)CN(C2COC2)CC3)cn1` [Example 31, 6-{[4-methyl-1-(6-methylpyridin-3-yl)-1H-1,2,3-triazol-5-yl]methoxy}-2-(oxetan-3-yl)-1,2,3,4-tetrahydro-2,7-naphthyridine], for which, in assay [1], the inhibitory constant (Ki) turned out to be 36 nM. The activation at 1 µM in assay [2] (setting [3]) stood at 115%.

On to `Cc1ccc(-c2noc(C)c2COc2cc3c(cn2)CN(c2ccccn2)CC3)cn1` [Example 13, 6-{[5-methyl-3-(6-methylpyridin-3-yl)-1,2-oxazol-4-yl]methoxy}-2-(pyridin-2-yl)-1,2,3,4-tetrahydro-2,7-naphthyridine], for which the inhibition constant Ki in assay [1] was found to be 6.6 nM. The activation at 1 µM in assay [2] (setting [3]) amounted to 129%.

For `Cc1nnn(-c2ccc(C(F)F)nc2)c1COc1cc2c(cn1)CN(C)CC2` [Example 24, 6-({1-[6-(difluoromethyl)pyridin-3-yl]-4-methyl-1H-1,2,3-triazol-5-yl}methoxy)-2-methyl-1,2,3,4-tetrahydro-2,7-naphthyridine], in assay [1], the Ki was 8.3 nM. In assay [2] (setting [3]), the activation at 1 µM was 88%.

One may read the Ki as a measure of affinity in units of concentration, obtained from inhibition or displacement.
